Values of other authors in PMC5698879 (Inorganic Chemistry, 2017).
Where two headings read alike, the source gives them in different places.

Details: [Cu^2+]tot = [chelator]tot = 50 μM

O=C(O)CN(CCN(CC(=O)O)CC(=O)O)CCN(CC(=O)O)CC(=O)O [DTPA, diethylenetriaminepentacetic acid]
Calculated pCu (−log [Cu]free) (pH 6.6): 9.7
Calculated pCu (−log [Cu]free) (pH 7.4): 10.7
